Patent publication US10092551B2, “Spiro-thiazolones” (Hoffmann-La Roche Inc., priority 2014, dated 2018)

Molecular target: human V1a receptor (Homo sapiens (Human), UniProt P37288)
Test: human V1a receptor binding studies (3H-Vasopressin, SPA beads)
Conditions: membranes of HEK293 cells transiently transfected with human V1a receptor, Ki by Cheng-Prussoff
Outline: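 Membranes from HEK293 cells transiently expressing cloned human V1a receptor, bound on yttrium silicate SPA beads with 4 nM 3H-vasopressin (added stock) and serially diluted compound, 1 h at room temperature. Non-specific binding defined with cold vasopressin; IC50 by non-linear regression, Ki via Cheng-Prusoff.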

Chain of human V1a receptor (P37288 whole entry): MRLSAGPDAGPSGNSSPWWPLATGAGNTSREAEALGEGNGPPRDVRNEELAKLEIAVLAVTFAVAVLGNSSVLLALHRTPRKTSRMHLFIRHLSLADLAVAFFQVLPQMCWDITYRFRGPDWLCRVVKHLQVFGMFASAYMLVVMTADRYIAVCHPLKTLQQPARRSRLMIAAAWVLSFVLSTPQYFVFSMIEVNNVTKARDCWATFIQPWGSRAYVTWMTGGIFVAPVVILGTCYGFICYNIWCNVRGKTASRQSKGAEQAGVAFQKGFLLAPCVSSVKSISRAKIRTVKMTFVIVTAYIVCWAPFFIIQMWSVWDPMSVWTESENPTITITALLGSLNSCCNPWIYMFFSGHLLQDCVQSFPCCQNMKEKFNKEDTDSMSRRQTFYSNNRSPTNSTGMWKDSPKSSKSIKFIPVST

Row | pKi hV1a | SMILES
1 | 8.3 | C/C(=C1\SC(N2CCC3(CC2)OC(=O)c2ccccc23)=NC1=O)c1ccc(Cl)nc1 [Example 138, 1′-{(5E)-5-[1-(6-chloropyridin-3-yl)ethylidene]-4-oxo-4,5-dihydro-1,3-thiazol-2-yl}-3H-spiro[2-benzofuran-1,4′-piperidin]-3-one]
2 | 9.0 | C/C(=C1/SC(N2CCC3(CC2)OC(=O)c2ccccc23)=NC1=O)c1ccc(Cl)cc1 [Example 3, 1′-{(5E/Z)-5-[1-(4-chlorophenyl)ethylidene]-4-oxo-4,5-dihydro-1,3-thiazol-2-yl}-3H-spiro[2-benzofuran-1,4′-piperidin]-3-one]
3 | 6.5 | C/C(=C1/SC(N2CCC3(CC2)OCc2ncccc23)=NC1=O)c1oc(C)nc1C [Example 167, (5E/Z)-5-[1-(2,4-dimethyl-1,3-oxazol-5-yl)ethylidene]-2-(1′H,7H-spiro[furo[3,4-b]pyridine-5,4′-piperidin]-1′-yl)-1,3-thiazol-4(5H)-one]
4 | 8.0 | O=C1N=C(N2CCC3(CC2)OC(=O)c2ccccc23)S/C1=C(\CO)c1ccc(Cl)nc1 [Example 147, 1′-{(5Z)-5-[1-(6-chloropyridin-3-yl)-2-hydroxyethylidene]-4-oxo-4,5-dihydro-1,3-thiazol-2-yl}-3H-spiro[2-benzofuran-1,4′-piperidin]-3-one]
5 | 7.1 | O=C1N=C(N2CCC3(CC2)OCc2ccccc23)S/C1=C\c1ccncc1 [Example 95, 5-(pyridin-4-ylmethylidene)-2-(1′H,3H-spiro[2-benzofuran-1,4′-piperidin]-1′-yl)-1,3-thiazol-4(5H)-one]
6 | 8.7 | CC(=C1SC(N2CCC3(CC2)OCc2ccccc23)=NC1=O)c1c(C)noc1C (stereo in doubt) [Example 105, (5E)-5-[1-(3,5-dimethyl-1,2-oxazol-4-yl)ethylidene]-2-(1′H,3H-spiro[2-benzofuran-1,4′-piperidin]-1′-yl)-1,3-thiazol-4(5H)-one]
7 | 8.7 | C/C(=C1\SC(N2CCC3(CC2)OCc2ccccc23)=NC1=O)c1ncccc1C [Example 155, (5E)-5-[1-(3-methylpyridin-2-yl)ethylidene]-2-(1′H,3H-spiro[2-benzofuran-1,4′-piperidin]-1′-yl)-1,3-thiazol-4(5H)-one]
8 | 9.4 | O=C1N=C(N2CCC3(CC2)OCc2ccccc23)S/C1=C(/CF)c1ccc(Cl)cc1 [Example 23, (5E/Z)-5-[1-(4-chlorophenyl)-2-fluoroethylidene]-2-(1′H,3H-spiro[2-benzofuran-1,4′-piperidin]-1′-yl)-1,3-thiazol-4(5H)-one]
9 | 8.3 | O=C1N=C(N2CCC3(CC2)OCc2ccccc23)S/C1=C1/CC2C3CC4C2C4C13 (stereo not shown) [Example 55, (5E/Z)-5-[hexahydro-1,2,4-(methanetriyl)pentalen-5(1H)-ylidene]-2-(1′H,3H-spiro[2-benzofuran-1,4′-piperidin]-1′-yl)-1,3-thiazol-4(5H)-one]

Row | SMILES | pKi hV1a
10 | CC(C)(C)[Si](C)(C)OC/C(=C1/SC(N2CCC3(CC2)OC(=O)c2ccccc23)=NC1=O)c1ccc(Cl)nc1 [Example 144, 1′-{(5E)-5-[2-{[tert-butyl(dimethyl)silyl]oxy}-1-(6-chloropyridin-3-yl)ethylidene]-4-oxo-4,5-dihydro-1,3-thiazol-2-yl}-3H-spiro[2-benzofuran-1,4′-piperidin]-3-one] | 8.0
